Calls of active or inactive are those of the source. The calls are words filed in the database; no cut-off is given here.
Columns and labels:
[1] = target: NACHT, LRR and PYD domains-containing protein 3 (Mus musculus, UniProt Q8R4B8); experiment: Inhibition of NLRP3 inflammasome activation in mouse BMDM cells assessed as reduction in IL-1beta release by ELISA; format: cell-based
BMDM [2] = experiment: Effect on pro-caspase-1 protein expression in mouse BMDM cells; format: functional, cell-based
[3] = target: NACHT, LRR and PYD domains-containing protein 3 (Mus musculus) (UniProt Q8R4B8); experiment: Inhibition of NLRP3 inflammasome activation in mouse BMDM cells assessed as inhibition of mature IL-1beta release by immunoblotting analysis; format: cell-based
BMDM [4] = experiment: Effect on pro-IL-1beta protein expression in mouse BMDM cells; format: functional, cell-based
[5] = target: NACHT, LRR and PYD domains-containing protein 3 (Mus musculus) (UniProt Q8R4B8); experiment: Inhibition of NLRP3 inflammasome activation in mouse BMDM cells assessed as inhibition of caspase-1 release by immunoblotting analysis; format: cell-based
BMDM [6] = experiment: Effect on NLRP3 protein expression in mouse BMDM cells; format: functional, cell-based

Sequence of NACHT, LRR and PYD domains-containing protein 3 (Q8R4B8 whole entry, the tested form may be a part): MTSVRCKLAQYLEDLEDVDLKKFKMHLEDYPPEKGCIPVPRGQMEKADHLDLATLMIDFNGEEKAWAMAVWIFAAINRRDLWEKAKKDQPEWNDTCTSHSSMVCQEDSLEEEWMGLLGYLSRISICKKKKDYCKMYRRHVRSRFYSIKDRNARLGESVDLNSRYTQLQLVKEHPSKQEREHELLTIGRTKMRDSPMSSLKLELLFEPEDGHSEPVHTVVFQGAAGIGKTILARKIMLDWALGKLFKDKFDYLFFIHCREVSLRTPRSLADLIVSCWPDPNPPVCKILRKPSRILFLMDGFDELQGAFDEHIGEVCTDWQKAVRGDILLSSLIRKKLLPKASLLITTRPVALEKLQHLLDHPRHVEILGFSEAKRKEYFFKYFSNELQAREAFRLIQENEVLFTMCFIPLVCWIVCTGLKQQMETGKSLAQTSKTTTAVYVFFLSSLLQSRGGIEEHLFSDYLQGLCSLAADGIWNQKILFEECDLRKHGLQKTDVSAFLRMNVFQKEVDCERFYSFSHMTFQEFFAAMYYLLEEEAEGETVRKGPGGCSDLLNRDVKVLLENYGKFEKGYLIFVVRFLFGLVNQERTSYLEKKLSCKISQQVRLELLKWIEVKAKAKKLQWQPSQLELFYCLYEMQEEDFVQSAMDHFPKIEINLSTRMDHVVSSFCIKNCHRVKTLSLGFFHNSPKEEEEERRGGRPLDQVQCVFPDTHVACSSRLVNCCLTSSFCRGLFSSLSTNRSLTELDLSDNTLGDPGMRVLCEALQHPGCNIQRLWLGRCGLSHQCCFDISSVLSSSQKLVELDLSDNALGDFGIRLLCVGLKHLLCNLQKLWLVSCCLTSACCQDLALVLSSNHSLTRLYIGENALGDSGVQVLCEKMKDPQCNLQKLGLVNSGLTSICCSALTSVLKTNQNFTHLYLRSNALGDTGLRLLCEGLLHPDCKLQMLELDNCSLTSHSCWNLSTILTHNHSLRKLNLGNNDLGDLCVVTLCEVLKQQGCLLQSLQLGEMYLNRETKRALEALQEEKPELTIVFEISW
Sequence of NACHT, LRR and PYD domains-containing protein 3 (Mus musculus) (Q8R4B8 whole entry, the tested form may be a part): as above

Row | SMILES | IC50 [1] | further results
1 | COc1cc(C2CC(=O)c3c(O)cc(O)c(CC=C(C)C)c3O2)c(O)cc1O (stereo not given) [KUSHENOL W] | 17.3 µM | 
2 | CC(C)=CCC/C(C)=C/Cc1c(O)cc2oc(-c3ccc(O)cc3)c(O)c(=O)c2c1O [MACARANGIN] | 3.4 µM | Activity (BMDM [2]): inactive; inhibition [3]: Dose-Dependent Effect; Activity (BMDM [4]): inactive; inhibition [5]: Dose-Dependent Effect; Activity (BMDM [6]): inactive
3 | COc1ccc(-c2cc(=O)c3c(O)cc(O)c(CC=C(C)C)c3o2)cc1 | 11.4 µM | 
4 | CC(C)=CCc1c(O)cc2oc(-c3ccc(O)cc3)c(O)c(=O)c2c1O [LICOFLAVONOL] | 8.5 µM | 
5 | O=c1c(O)c(-c2ccc(O)cc2)oc2cc(O)cc(O)c12 [KAEMPFEROL] | > 100 µM | 
6 | COc1ccc(-c2cc(=O)c3c(O)cc4c(c3o2)C=CC(C)(C)O4)cc1 | > 100 µM | 
7 | O=c1c(O)c(-c2ccc(O)c(O)c2)oc2cc(O)cc(O)c12 [QUERCETIN] | 37.1 µM | 
8 | COc1cc(-c2cc(=O)c3c(O)cc4c(c3o2)C=CC(C)(C)O4)ccc1O | > 100 µM | 
9 | CC(C)=CCc1c(O)cc2oc(-c3ccc(O)c(O)c3)c(O)c(=O)c2c1O [GANCAONIN P] | 20.4 µM | 
10 | COc1cc(-c2cc(=O)c3c(O)cc(O)c(CC=C(C)C)c3o2)ccc1O | 41.2 µM | 

Source: ChEMBL document CHEMBL5550136, “Total synthesis/semi-synthesis of natural isopentenyl flavonoids with inhibitory activity on NLRP3 inflammasome” (Bioorg Med Chem Lett, 2024)
